We go through one molecule from patent publication US20220160712A1, “METHODS OF TREATING RHEUMATOID ARTHRITIS AND FOR PREDICTING THE RESPONSE TO METHOTREXATE” (CHAN ZUCKERBERG BIOHUB, INC., priority 2020, published 2022).

The assay concerns B. theta and C. asparagiforme. In words: Untargeted metabolomics of in vitro cultures. In kind it is cell-based, Bacteroides thetaiotaomicron; Clostridium asparagiforme. On the procedure:
As described in the in vitro bacterial growth studies, 48-hour overnight cultures were grown in an anaerobic chamber in liquid BHI+for the following isolates: Bacteroidetes thetaiotaomicron and Clostridium asparagiforme. Each subculture was diluted down to an OD600 of 0.08-0.1, which was then further diluted 100-fold, and then used to inoculate a 96-well 2-ml deep well plate with 100 μg/ml MTX (n=6 replicates per isolate) (Sigma, Cat #M9929) or DMSO (n=2 replicates per isolate). After 24 hours, aliquots were removed, centrifuged on a tabletop centrifuge at 4° C. for 5 minutes at ˜2000 rcf, and supernatant was prepared for extraction and untargeted LC-MS as described.
Extraction was done in 96 well plates. In brief, 60 μL of the supernatant from the 96 well culture plate was added to 120 μL of pre-cooled methanol/acetonitrile (1:1, v/v) in a non-sterile 96 well plate. The samples were then incubated at −20° C. for 1 hour. After incubation, samples were mixed at 4° C. at 650 rpm using small block tube shaker. The plates were then centrifuged at 3000 rpm for 10 minutes. After centrifugation, using multi-channel pipette, 80 μL of supernatant from each well was transferred to non-sterile 96 well polypropylene plate and then sealed with pre-slit silicone mat. A 1:1:1 mix of LC-MS grade H2O, LC-MS grade acetonitrile and LC-MS grade methanol was used as blank.
Samples (5 μl) were separated by hydrophilic interaction chromatography HPLC using a Vanquish UHPLC system (Thermo Fisher Scientific, Waltham, MA) with a Waters (Milford, MA) Acquity UPLC BEH Amide Column (2.1×100 mm×1.7 μm particle size) maintained at 65° C. and a 17 minute gradient, at a flow rate of 400 μl/min. […]
The raw data were converted into mzML format using ProteoWizard v3.0. Converted HILIC files were then analyzed using MS-DIAL v4.16 for deconvolution, peak detection, alignment, and identification (Parameters file can be provided upon request). […]

[1] abbreviates: MTX 100 μg/ml, 24 hours, padj<0.01, two-factor ANOVA with BH correction.

Take `CN(Cc1cnc2nc(N)nc(N)c2n1)c1ccc(C(=O)N[C@@H](CCC(=O)O)C(=O)O)cc1` [MTX, methotrexate]: the “levels of AMP, adenine, hypoxanthine and guanine relative to vehicle control” value (C. asparagiforme, 24 hours of treatment, AMP decreased, the rest increased, Wilcoxon rank sum) is “these differences were not statistically significant”. Under setting [1], the “number of metabolic features that changed similarly in the two isolates” value was found to be 418 and the “number of metabolic features that differed by species” value is on record as 220.
